Test results as given in patent publication US20140105959A1, “METHOD AND DEVICE FOR REDUCING DERMAL FILLER ADVERSE EVENTS” (ALLERGAN, INC., priority 2012, published 2014).

Assays:
[1] = test system: nasolabial folds; experiment: visible bruising after Juvederm XC injection into patch-treated nasolabial folds of a patient; assay type: in vivo, human; conditions: microneedle roller pretreatment, cotton-based patch about 300 ppm phenylephrine for about 7 minutes, then 0.6 cc Juvederm XC per nasolabial fold
Protocol: Their physician applies, along both nasolabial folds, a tool having a rolling head with numerous microneedles to penetrate the dermis with numerous punctures about one millimeter in depth. They then apply a phenylephrine-containing cotton-based patch, formulated to about 300 ppm phenylephrine, in accordance with the invention, on the skin along the left nasolabial fold, in a way that covers the entire injection site. The patch is left in place for about 7 minutes. The physician removes the patch and then carefully injects 0.6 cc of a HA-based dermal filler, specifically, Juvederm® XC, (available from Allergan, Inc., Irvine, Calif.) into the phenylephrine-treated dermis just beneath the fold line, using a 27 gauge needle. The treatment procedure is repeated for the right nasolabial fold, for example, using another identical patch and another 0.6 cc Juvederm® XC.

[2] = test system: hairless rat skin; experiment: bruising after dermal filler administration at patch-treated versus untreated rat skin; assay type: in vivo; conditions: cotton fabric patch, phenylephrine 400 ppm, 15 minutes, then dermal filler, compared with adjacent untreated skin
[3] = test system: hairless rat skin; experiment: vasoconstriction in hairless rat skin after topical phenylephrine patch; assay type: in vivo
Text: In certain embodiments, mechanisms are provided that are effective to actively enhance transport of vasoactive drugs across the skin (mechanisms will be referred to as “enhancers” in the rest of the invention). For example, in one embodiment of the invention, the method includes the step of treating a skin site selected for dermal filler administration with a mechanism effective to enhance drug delivery across the skin prior to treating the skin site with the device or compound containing the active agent effective to reduce or ameliorate the adverse event. For example, the mechanism, hereinafter sometimes referred to as “mechanical enhancer” may comprise a mechanical device capable of gently stripping of the superficial skin layers from the epidermis. For example, the mechanism may be an adhesive tape or abrasive surface. It has been discovered that use of such mechanisms increase phenylephrine diffusion through the skin and result in significant reduction in skin's vasoconstriction time (e.g. 5 minutes) by phenylephrine using the same patch device. In certain embodiments, it might be useful to apply the mechanism, enhancement device, after filler administration, preferably in devices where the vasoactive drug may interfere with safety and/or potency of fillers. […]

CNC[C@H](O)c1cccc(O)c1 [phenylephrine]
bruising one week after the procedure ([1]; one week): no bruising, nor red marks
visible bruising three days after the treatment procedure ([1]; three days): does not notice any visible bruising
bruising at the vasoconstricted skin site, particularly along the line of injection [2]: lower than at the untreated skin site
vasoconstriction in skin regions directly underneath the patch ([3]; cotton fabric patch, phenylephrine 400 ppm, removed after 15 minutes, hairless rat): significant vasoconstriction
time to release, diffuse and cause significant vasoconstriction ([3]; phenylephrine formulated at 100 ppm in a topically placed cotton gauze, hairless rat skin): about 10 minutes
skin's vasoconstriction time ([3]; same patch device, after mechanical enhancer (adhesive tape or abrasive surface stripping superficial skin layers)): 5 min
